Measured values published in patent US20230114107A1, “COMBINATION ANTI-CANCER THERAPIES WITH INDUCERS OF IRON-DEPENDENT CELLULAR DISASSEMBLY” (Flagship Pioneering Innovations V, Inc., priority 2019, published 2023).
Entries after “also recorded” stand apart in the source; their conditions may differ.

Key:
[1] = system: IRF reporter in THP1-Dual cells; assay: IRF reporter activity in THP1-Dual monocytes co-cultured with treated A20 cells; format: cell-based, human; conditions: A20 cells treated 24 hours, co-culture 24 hours; vs DMSO; FIG. 6C
Method: A20 B-cell leukemia cells were treated with either control (DMSO) or various doses of RSL3, for 24 hours prior to co-culture with THP1-Dual cells for an additional 24 hours. RSL3 was purchased from Selleckchem (Houston, Tex.) and dissolved in DMSO. Subsequently, the THP1 supernatants were assessed for NFKB or IRF reporter activity. A20 cells were acquired from ATCC and THP1-Dual cells acquired from InvivoGen (San Diego, Calif.). Both cell types were cultured in 96-well plates for the duration of the assay. 50,000 A20 cells were plated 24 hours prior to dosing with RSL3, with a final DMSO concentration of 0.5%. 24 hours post-treatment, THP1-Dual cells (25,000 cells/well) were added to the A20 cells. 24 hours later, 30 μl of supernatant was mixed with either 200 μl QuantiBlue (InvivoGen, San Diego, Calif.) or 50 μl QuantiLuc and absorbance or luminescence was recorded on a Molecular Devices plate reader.

A375-DR cells = assay: CellTiter-Glo 2.0 viability of dabrafenib-resistant melanoma cells; format: cell-based, human; conditions: graded concentrations, 72 hours; vs non-resistant parental cell line; FIG. 16A
Method: (§1) The effects of the ferroptosis inducer RSL3 on cancer cell lines with acquired resistance to standard of care therapeutics was assessed in vitro. Human melanoma cell lines with acquired resistance to BRAF inhibitors (A375-DR or A375-VR) were generated by propagating parental A375 cells in increasing concentrations of dabrafenib or vemurafenib (10 nM-100 μM) over 8 weeks. These resistant melanoma cell lines were further maintained in growth medium containing 5 μM dabrafenib or vemurafenib. BT-474 Clone 5, a human breast cancer cell line that is resistant to trastuzumab, was purchased from American Type Culture Collection (ATCC). 5,000 A375-DR, A375-VR, or BT-474 clone 5 cells were plated per well in flat-bottom 96 well plates and incubated overnight. Cells were then dosed with graded concentrations of RSL3 for 72 hours, and cellular viability was assessed using the CellTiter-Glo 2.0 Cell Viability Assay. The experiments were run in triplicate.

[2] = system: A20 B-cell leukemia cells; assay: Viability of A20 B-cell leukemia / lymphoma cells after treatment; format: cell-based; conditions: 24 hours
[3] = system: NFKB reporter in THP1-Dual cells; assay: NFKB reporter activity in THP1-Dual monocytes co-cultured with treated Jurkat cells; format: cell-based, human; conditions: Jurkat cells treated 24 hours, co-culture 24 hours; vs DMSO; FIG. 5B
Method: Jurkat T cell leukemia cells were treated with either control (DMSO) or various doses of RSL3, for 24 hours prior to co-culture with THP1-Dual cells for an additional 24 hours. RSL3 was purchased from Selleckchem (Houston, Tex.) and dissolved in DMSO. Subsequently, the THP1 supernatants were assessed for NFKB or IRF reporter activity.
Jurkat cells were acquired from ATCC and THP1-Dual cells acquired from InvivoGen (San Diego, Calif.). Both cell types were cultured in 96-well plates for the duration of the assay. 100,000 Jurkat cells were plated 24 hours prior to dosing with RSL3, with a final DMSO concentration of 0.5%. 24 hours post-treatment, THP1-Dual cells (25,000 cells/well) were added to the Jurkat cells. 24 hours later, 30 μl of supernatant was mixed with either 200 μl QuantiBlue (InvivoGen, San Diego, Calif.) or 50 μl QuantiLuc and absorbance or luminescence was recorded on a Molecular Devices plate reader.

BT-474 Clone 5 cells = assay: CellTiter-Glo 2.0 viability of trastuzumab-resistant breast cancer cells; format: cell-based, human; conditions: graded concentrations, 72 hours; vs non-resistant parental cell line; FIG. 16C
Method: as §1

[4] = system: NFKB reporter in THP1-Dual cells; assay: NFKB reporter activity in THP1-Dual monocytes co-cultured with treated Caki-1 cells; format: cell-based, human
Method: Caki-1 renal cell carcinoma cells were treated with either control (DMSO) or various doses of Erastin, for 24 hours prior to co-culture with THP1-Dual cells for an additional 24 hours. Erastin was purchased from Selleckchem (Houston, Tex.) and dissolved in DMSO. Subsequently, the THP1 supernatants were assessed for NFKB or IRF reporter activity. Caki-1 cells were acquired from ATCC and THP1-Dual cells acquired from InvivoGen (San Diego, Calif.). Both cell types were cultured in 96-well plates for the duration of the assay. 7,500 Caki-1 cells were plated 24 hours prior to dosing with Erastin, with a final DMSO concentration of 0.5%. 24 hours post-treatment, THP1-Dual cells (25,000 cells/well) were added to the Caki-1 cells. 24 hours later, 30 μl of supernatant was mixed with either 200 μl QuantiBlue (InvivoGen) or 50 μl QuantiLuc and absorbance or luminescence was recorded on a Molecular Devices plate reader. Caki-1 renal cell carcinoma cells were treated with either control (DMSO) or various doses of RSL3, for 24 hours prior to co-culture with THP1-Dual cells for an additional 24 hours. RSL3 was purchased from Selleckchem and dissolved in DMSO. Subsequently, the THP1 supernatants were assessed for NFKB or IRF reporter activity. Caki-1 cells were acquired from ATCC and THP1-Dual cells acquired from InvivoGen (San Diego, Calif.). Both cell types were cultured in 96-well plates for the duration of the assay. 7,500 Caki-1 cells were plated 24 hours prior to dosing with RSL3, with a final DMSO concentration of 0.5%. 24 hours post-treatment, THP1-Dual cells (25,000 cells/well) were added to the Caki-1 cells. 24 hours later, 30 μl of supernatant was mixed with either 200 μl QuantiBlue (InvivoGen, San Diego, Calif.) or 50 μl QuantiLuc and absorbance or luminescence was recorded on a Molecular Devices plate reader. […] Subsequently, the THP1 supernatant was assessed for NFKB reporter activity. Caki-1 cells were acquired from ATCC and THP1-Dual cells acquired from InvivoGen (San Diego, Calif.). Both cell types were cultured in 96-well plates for the duration of the assay.

A375-VR cells = assay: CellTiter-Glo 2.0 viability of vemurafenib-resistant melanoma cells; format: cell-based, human; conditions: graded concentrations, 72 hours; vs non-resistant parental cell line; FIG. 16B
Method: as §1

[5] = system: Caki-1 renal cell carcinoma cells; assay: Viability of Caki-1 renal cell carcinoma cells after treatment; format: cell-based; conditions: 24 hours

## COC(=O)c1ccc([C@H]2c3[nH]c4ccccc4c3C[C@H](C(=O)OC)N2C(=O)CCl)cc1 [RSL3]
[1]
  IRF signaling in THP1 monocytes: elicited
A375-DR cells
  sensitivity of A375-DR cells to RSL3-induced ferroptosis (cellular viability): sensitive to RSL3-induced ferroptosis; also recorded: more sensitive to RSL3-induced ferroptosis than the corresponding non-resistant parental cell line
[2]; GPX4 inhibitor 0.002-10 μM, FIG. 10A, 11A, 12A
  viability of A20 lymphoma cells, dose dependence: decreased viability of the cells in a dose dependent manner
[2]; various doses, FIG. 6A
  viability of A20 B cell leukemia cells: negatively affected the viability
[3]
  NFKB signaling in THP1 monocytes: elicited NFKB signaling in THP1 monocytes
BT-474 Clone 5 cells
  sensitivity of BT-474 clone 5 cells to RSL3-induced ferroptosis (cellular viability): sensitive to RSL3-induced ferroptosis; also recorded: more sensitive to RSL3-induced ferroptosis than the corresponding non-resistant parental cell line
[4]; Caki-1 cells treated 24 hours, co-culture 24 hours, vs DMSO, FIG. 3B, 4B
  NFKB signaling in THP1 monocytes: elicited NFKB signaling in THP1 monocytes
[4]; Caki-1 cells treated with RSL3 or ML162, FIG. 13B, 14B
  NFKB activity in THP1 cells, dose dependence: increased NFKB activity in THP1 cells in a dose dependent manner
A375-VR cells
  sensitivity of A375-VR cells to RSL3-induced ferroptosis (cellular viability): sensitive to RSL3-induced ferroptosis; also recorded: more sensitive to RSL3-induced ferroptosis than the corresponding non-resistant parental cell line
[5]; GPX4 inhibitor various doses, FIG. 13A, 14A
  viability of Caki-1 renal carcinoma cells, dose dependence: decreased viability of the cells in a dose dependent manner
[5]; various doses, FIG. 3A, 4A
  viability of Caki-1 cells: negatively affected the viability
